Laboratory results reported in article PMC9727064, “Performance assessment and economic analysis of a human Liver-Chip for predictive toxicology” (Communications Medicine, 2022).

Legend:
[1] = test system: human Liver-Chip (primary human hepatocytes); test: Liver-Chip albumin production in top channel effluent (ELISA); assay type: cell-based; conditions: for Albumin change in words: Liver-Chip effluent
Text: Cycles 1 to 4 tested 6–8 concentrations in duplicate for each of 10–13 drugs. To determine which sampling strategy was optimal for cycles 1 to 4 (16 doses × 1 replicate, 8 × 2, 5 × 3, or 4 × 4), we generated three different “dose-response” synthetic datasets, each distorted by different noise levels (low, medium, or high). For each of these datasets, we performed curve-fitting analyses and calculated the Root Mean Square Error between the “true” and estimated IC50 parameter. […] Some drugs were also repeated across cycles (on different donors or at different concentrations) to ensure experimental robustness. However, to replicate a more typical study design likely to be carried out by scientists in the pharmaceutical industry, we created cycle 5 with 6 drugs, where each was tested in 4 concentrations in triplicate. For each cycle, chips were dosed with drug over 8 days (referred to as Day 0 through Day 7).
The drug dosing concentrations were determined from the unbound human Cmax of each drug. First, the expected fraction of drug unbound in media with 2% FBS was extrapolated from plasma binding data for each drug. Dosing concentrations were then back calculated such that the unbound fraction in media would reflect relevant multiples of unbound human Cmax (Supplementary Data 1).
On the first dosing day (Day 0), all chips were imaged using the ECHO microscope. Five hundred microliters of effluent was collected from all four reservoirs of the pod and placed in a labeled 96-well plate. After collection, all the remaining media was carefully aspirated before dosing with 3.8 mL of corresponding dosing solution. Dosing occurred on study days 0, 2, and 4 for chips flowing at 30 µL/h, and on days 0, 1, 2, 3, 4, 5, and 6 for chips flowing at 150 µL/h. Effluent collection occurred on days 1, 3, and 7.
Top channel outlet effluents were analyzed to quantify albumin and alanine transaminase (ALT) levels on days 1, 3, and 7 using sandwich ELISA kits (Abcam, Albumin ab179887, ALT ab234578) according to vendor-provided protocols. Frozen (−80 °C) effluent samples were thawed overnight at 4 °C prior to assay. The Hamilton Vantage liquid handling platform was used to manage effluent dilutions (1:500 for albumin, neat for ALT), preparation of standard curves, and addition of antibody cocktail. Absorbance at 450 nm was measured using the SynergyNeo Microplate Reader (BioTek).
All statistical analyses were conducted in R[21] (version 4.1.2) and figures were produced using the R package ggplot2[22] (version 3.3.5). The dose-response analysis (Fig. 4) was carried out using the popular drc R package developed by Ritz et al.[23] using the generalized log-logistic dose-response model. The error bars in Figs. 3 and 4, correspond to the standard errors of the mean. The circles in Fig. 3 correspond to the samples used to calculate the corresponding statistics. The analysis of significance in Fig. 3 was performed using paired t-test across different days (same donor) and unpaired t-test across different donors (same day). In Fig. 3 the number of samples used were n = 3 for donor two, and n = 4 for donor three. For both donors, the number of the freshly thawed hepatocyte samples used to estimate the corresponding log2(Fold Change) were n = 4. Finally, the analysis of significance in Fig. 3 was performed using paired t-test.

[2] = test system: human Liver-Chip (hepatocyte layer); test: Liver-Chip immunofluorescence imaging (caspase 3/7, TMRM, AdipoRed/LipidTOX); assay type: cell-based; conditions: for Immunofluorescence staining result in words: caspase 3/7 (apoptosis) or TMRM (mitotoxicity), 7 days; for Immunofluorescent findings, donor one (Supplementary Figure 3) / Immunofluorescent findings, donor three (Supplementary Figure 3) / Immunofluorescent findings, donor two (Supplementary Figure 3): day 7 post-drug administration, hepatocyte layer, top channel
Protocol: Chips were detached from pods and washed once with PBS. […] Afterwards, chips were washed with PBS and stored at 4 °C until staining. Following fixation, chips corresponding to low, medium, and high concentrations from each group were cut in half with a razor blade perpendicular to the co-culture channels. One half was used in the following staining protocol, while the other half was stored for future staining. All stains and washes utilized the bubble method, in which a small amount of air is flowed through the channel prior to bulk wash media to prevent a liquid-liquid dilution of the staining solution. […] Following 15 minutes of incubation at room temperature, each channel was washed with 200 µL of PBS (alternating channels, 2× for top and 3× for bottom). As an alternative lipid accumulation marker, 100 µL of HCS LipidTOX Deep Red (ThermoFisher, H34477) was diluted 1:1000 v/v in PBS with NucBlue counterstain and added to the top channel. After a 30 min incubation at room temperature, the chips were again allowed to reach room temperature before the channels were alternatively washed with 200 µL of PBS, the bottom channel undergoing three washes and the top channel undergoing two. Chips were then imaged using the Opera Phenix. Following lipid and DAPI staining and imaging, chips were stained with a […] (MRP2) antibody to visualize the bile canalicular structures characteristic of healthy Liver-Chips. […] Then, each channel was washed with 200 µL of PBS (alternating channels, 2× for top and 3× for bottom). […] Next, primary antibody Mouse anti-MRP2 (Abcam, ab3373) was prepared 1:100 in the original blocking buffer, diluted 1:4 in PBS. 100 µL of solution was added to each channel, and chips were stored overnight at 4 °C. The following day, each channel was washed with 200 µL of PBS (alternating channels, 2× for top and 3× for bottom). […] 100 µL of solution was added to each channel and chips incubated at room temperature, protected from light, for two hours. Then, each channel was washed with 200 µL of PBS (alternating channels, 2× for top and 3× for bottom). Chips were imaged immediately or stored at 4 °C until ready for imaging on the Opera Phenix. Chip replicates designated for live cell imaging were washed with PBS utilizing the bubble method. Chips were then cut in half perpendicular to the co-culture channels. […] The bottom chips halves were stained with NucBlue (Thermo) to visualize nuclei and Tetramethylrhodamine, methyl ester (TMRM) (ThermoFisher, I34361) to visualize active mitochondria. This staining panel was prepared in PBS with 5% FBS, with NucBlue at 2 drops per mL and TMRM at a 1:1000 ratio in original blocking buffer, diluted 1:4 in PBS. Chips were incubated in the dark at 37 °C for 30 min, and then each channel was washed with 200 µL of PBS (alternating channels, 2× for top and 3× for bottom). The chips were kept at 37 °C, protected from light, until ready for imaging with the Opera Phenix. Fluorescent confocal image acquisition was performed using the Opera Phenix High-Content Screening System and Harmony 4.9 Imaging and Analysis Software (PerkinElmer). Before acquisition, the Phenix internal environment was set to 37 °C and 5% CO2. […] Whole chips were placed directly into each slot, while top and bottom half chips were matched and combined in one chip slot. Chips were aligned flush with the adapter and one another. Any bubbles identified from visual inspection were washed out with PBS. Once ready, the stained chips were covered with transparent plate film to seal channel ports and loaded into the Phenix. […] Z-stacks were generated with 3.6 µm between slices for 28–32 planes so that the epithelium was located around the center of the stack. […] Raw images from fixed and live imaging were exported in TIFF format from the Harmony software. Using scripts written for FIJI (ImageJ), TIFFs across three color channels and multiple z-stacks were compiled into composite images for each field of view in each chip. […]

[3] = concentration causing a 50% reduction in albumin production
[4] = expanded drug list, lowest multiplier causing a 50% reduction in albumin production

Compound | Albumin IC50 Donor 1 [1, 3] | Albumin IC50 Donor 2 [1, 3] | Albumin IC50 Donor 3 [1, 3] | Immunofluorescence staining result in words [2] | Immunofluorescent findings, donor one (Supplementary Figure 3) [2] | Immunofluorescent findings, donor three (Supplementary Figure 3) [2] | Immunofluorescent findings, donor two (Supplementary Figure 3) [2] | IF imaging Donor 1 ([2]; matched pair analysis) | IF imaging Donor 2 ([2]; matched pair analysis) | IF imaging Donor 3 ([2]; matched pair analysis) | Albumin IC50 Donor 1 [1, 4] | Albumin IC50 Donor 2 [1, 4] | IF imaging Donor 1 ([2]; expanded drug list) | IF imaging Donor 2 ([2]; expanded drug list) | Albumin change in words [1]
Cc1cc2c(cc1CC(=O)c1sccc1S(=O)(=O)Nc1onc(C)c1Cl)OCO2 [Sitaxsentan] | 4.4 multiples of the unbound human Cmax | 164 multiples of the unbound human Cmax | >100 multiples of the unbound human Cmax | concentration-dependent decrease in TMRM staining | Mitotoxicity | Mitotoxicity | Mitotoxicity | Mitotoxicity | Mitotoxicity | Mitotoxicity | – | – | – | – | –
Cc1cn([C@H]2C=C[C@@H](CO)O2)c(=O)[nH]c1=O [Stavudine] | – | – | – | – | No findings | – | Mitotoxicity | – | – | – | > 60 unbound human Cmax multiplier | 132 unbound human Cmax multiplier | No findings | Mitotoxicity | –
Nc1c2c(nc3ccccc13)CCCC2 [Tacrine] | – | – | – | increased caspase 3/7 staining | Apoptosis | – | – | – | – | – | – | – | Apoptosis | Apoptosis | not associated with any release of ALT or decline in albumin
CC[C@H]1OC(=O)[C@H](C)C(=O)[C@H](C)[C@@H](O[C@@H]2O[C@H](C)C[C@H](N(C)C)[C@H]2O)[C@](C)(OC)C[C@@H](C)C(=O)[C@H](C)[C@H]2N(CCCCn3cnc(-c4cccnc4)c3)C(=O)O[C@]12C [Telithromycin] | – | – | – | apoptosis-mediated cell death | Apoptosis | – | – | – | – | – | 13 unbound human Cmax multiplier | – | Apoptosis | – | decrease in albumin
Cc1ccc(C(=O)c2cc(O)c(O)c([N+](=O)[O-])c2)cc1 [Tolcapone] | 3 multiples of the unbound human Cmax | 39 multiples of the unbound human Cmax | – | – | Mitotoxicity | – | Mitotoxicity | Mitotoxicity | Mitotoxicity | – | – | – | – | – | –
Cc1c(C)c2c(c(C)c1O)CCC(C)(COc1ccc(CC3SC(=O)NC3=O)cc1)O2 (stereo not drawn) [Troglitazone] | 24 multiples of the unbound human Cmax | 122 multiples of the unbound human Cmax | – | – | Apoptosis | – | Apoptosis | Apoptosis | Apoptosis | – | – | – | – | – | –
N[C@@H]1[C@H]2CN(c3nc4c(cc3F)c(=O)c(C(=O)O)cn4-c3ccc(F)cc3F)C[C@@H]12 [Trovafloxacin] | 82 multiples of the unbound human Cmax | 78 multiples of the unbound human Cmax | 31 multiples of the unbound human Cmax | concentration-dependent increases in caspase 3/7 staining | Apoptosis | Apoptosis | Apoptosis | Apoptosis | Apoptosis | Apoptosis | – | – | – | – | –
CCOC(=O)CN[C@@H](C(=O)N1CC[C@H]1C(=O)NCc1ccc(/C(N)=N\O)cc1)C1CCCCC1 [Ximelagatran] | – | – | – | – | No findings | – | No findings | – | – | – | 32 unbound human Cmax multiplier | > 300 unbound human Cmax multiplier | No findings | No findings | –
CC(c1cc2ccccc2s1)N(O)C(N)=O (stereo not drawn) [Zileuton] | – | – | – | – | No findings | – | No findings | – | – | – | > 100 unbound human Cmax multiplier | 210 unbound human Cmax multiplier | No findings | No findings | –
